Values after ≈ are worked out from the molar mass of the structure shown.
Tests used:
[1] = test system: Vibrio parahaemolyticus K-7; assay: antibacterial activity (Minimum Inhibitory Concentration); format: cell-based; settings: K7; Vibrio parahaemolyticus K-7; read-out: MIC
[2] = test system: Pseudomonas 1007; assay: paper disk method, inhibitory zone diameter; format: cell-based; settings: Pseudomonas, 1007; 2000 γ/ml; read-out: inhibitory zone diameter

SMILES | MIC [1] | zone of inhibition at 2000 µg/mL [2]
NC[C@H]1O[C@H](O[C@H]2C[C@@H](O)[C@H](N)C[C@@H]2N)[C@H](N)[C@@H](O)[C@@H]1O [5-Deoxyneamine, 5-deoxyneamine] | 12.5 µg/mL (≈ 40.8 µM) | 0 mm
NC[C@H]1O[C@H](O[C@H]2[C@H](O)C[C@H](N)C[C@@H]2N)[C@H](N)[C@@H](O)[C@@H]1O [6-Deoxyneamine, 6-deoxyneamine] | 25 µg/mL (≈ 81.6 µM) | 0 mm

— patent US4103082A, “Aminocyclitol derivatives and process for producing the same” (priority 1975, dated 1978)
